The supplement of paper PMC13380429
± gives the standard deviation of the averaged measurements.

What was measured:
Settings in all cases: 72 h
Caco-2 [1] = assay: cell viability relative to DMSO; higher = less toxic
Calu-3 [2] = assay: as above
HepG2 [3] = assay: as above
U2OS [4] = assay: as above
Vero E6 [5] = assay: as above
Calu-3 [6] = assay: relative viability EC50 (midpoint between 100% and the lowest measured viability); higher = less toxic
Caco-2 [7] = assay: drug sensitivity score (DSS) for viability; higher = more toxic; extreme values may be limits of the assay
Calu-3 [8] = assay: as above
HepG2 [9] = assay: as above
U2OS [10] = assay: as above
Vero E6 [11] = assay: as above
Caco-2 [12] = assay: relative viability EC50 (midpoint between 100% and the lowest measured viability); higher = less toxic
HepG2 [13] = assay: as above
U2OS [14] = assay: as above
Vero E6 [15] = assay: as above

Compound	cell viability (Caco-2 [1]; 1 nM)	cell viability (Caco-2 [1]; 10 nM)	cell viability (Caco-2 [1]; 100 nM)	cell viability (Caco-2 [1]; 1000 nM)	cell viability (Caco-2 [1]; 10000 nM)	cell viability (Calu-3 [2]; 1 nM)	cell viability (Calu-3 [2]; 10 nM)	cell viability (Calu-3 [2]; 100 nM)	cell viability (Calu-3 [2]; 1000 nM)	cell viability (Calu-3 [2]; 10000 nM)	cell viability (HepG2 [3]; 1 nM)	cell viability (HepG2 [3]; 10 nM)	cell viability (HepG2 [3]; 100 nM)	cell viability (HepG2 [3]; 1000 nM)	cell viability (HepG2 [3]; 10000 nM)	cell viability (U2OS [4]; 1 nM)	cell viability (U2OS [4]; 10 nM)	cell viability (U2OS [4]; 100 nM)	cell viability (U2OS [4]; 1000 nM)	cell viability (U2OS [4]; 10000 nM)	cell viability (Vero E6 [5]; 1 nM)	cell viability (Vero E6 [5]; 10 nM)	cell viability (Vero E6 [5]; 100 nM)	cell viability (Vero E6 [5]; 1000 nM)	cell viability (Vero E6 [5]; 10000 nM)	relative viability EC50 (Calu-3 [6])	drug sensitivity score (Caco-2 [7])	drug sensitivity score (Calu-3 [8])	drug sensitivity score (HepG2 [9])	drug sensitivity score (U2OS [10])	drug sensitivity score (Vero E6 [11])	relative viability EC50 (Caco-2 [12])	relative viability EC50 (HepG2 [13])	relative viability EC50 (U2OS [14])	relative viability EC50 (Vero E6 [15])
CCn1c(-c2nonc2N)nc2cnc(Oc3cccc(NC(=O)c4ccc(OCCN5CCOCC5)cc4)c3)cc21	94.9%	98%	94.9%	97.8%	67.7%	97.9%	123%	144%	131%	125%	96.6%	107%	114%	80.4%	52.4%	97.5%	98.6%	91.4%	78.5%	62.1%	96.5%	99.3%	88.9%	72.2%	72.1%	> 10000 nM	1.8	0	5.1	4.4	5.9	–	–	–	–
CN(c1ccccc1CNc1nc(Nc2ccc3c(c2)CC(=O)N3)ncc1C(F)(F)F)S(C)(=O)=O	92.4%	91.6%	91.5%	83.8%	33.6%	–	–	–	–	–	92.8%	89.9%	92.9%	51.5%	7.2%	98.2%	102%	94.3%	76.1%	0.2%	97%	88.8%	81.2%	65.4%	10.3%	–	6	–	10.9	9.2	9.6	1610 nM	895 nM	1580 nM	1070 nM
Cn1ncc(Cl)c1-c1cc(C(=O)N[C@H](CN)Cc2cccc(F)c2)sc1Cl	83.6%	85.6%	95.3%	79.7%	71%	98%	97.6%	104%	89.7%	63.6%	86.8%	101%	96.7%	93.8%	84.7%	97.2%	95.6%	97.9%	94.1%	89.2%	91.8%	101%	91.5%	93.6%	100%	–	0	3.3	0	0	0	> 10000 nM	> 10000 nM	> 10000 nM	> 10000 nM
N#CCC(=O)c1ccccc1	106%	105%	89.2%	98.2%	102%	103%	108%	96.3%	100%	94.7%	94.9%	103%	101%	106%	96.2%	100%	99.9%	100%	98.3%	104%	–	–	–	–	–	> 10000 nM	0	0	0	0	–	> 10000 nM	> 10000 nM	> 10000 nM	–
O=C(NOCC(O)CO)c1cc(Br)c(F)c(F)c1Nc1ccc(I)cc1F (centres undefined)	102%	92.3%	73.3%	69.5%	68.7%	94.8%	81.8%	73.3%	62.1%	43.2%	99.5%	97.9%	46.1%	25.7%	21.3%	103%	94.7%	92.7%	97.6%	67.8%	93.8%	88.6%	76.7%	55.2%	51.3%	102 nM	9.1	11.8	20.9	1.8	11.1	–	64.5 nM	–	–
O=C(O)CCC(=O)C(=O)O [2-oxoglutaric-acid]	95.3%	97.7%	95%	94.2%	91.5%	–	–	–	–	–	97.9%	94.3%	91.4%	98.8%	105%	98.5%	99.5%	95.2%	98.7%	99.3%	97.8%	104%	98.3%	104%	102%	–	0	–	0	0	0	> 10000 nM	> 10000 nM	> 10000 nM	> 10000 nM
COc1ccc(S(=O)(=O)Nc2cccnc2Nc2ccc(O)cc2)cc1 [ABT-751]	100%	89.6%	86.3%	53.7%	42.4%	108%	87.3%	94%	69.4%	55.8%	101%	108%	105%	45.1%	35.2%	103%	99.4%	104%	57.5%	26.4%	102%	98.9%	93.3%	29.8%	27.9%	–	10.1	6.2	10	9.2	14.2	260 nM	522 nM	884 nM	248 nM
CCn1nc(C2CCN(C(=O)CCO)CC2)nc1-c1cnc(N)c(-c2nnc(C(C)(C)C)o2)n1 [AZD8835]	94.1%	93.6%	91.3%	86.6%	64.3%	102%	96.3%	99.1%	81.4%	41.8%	101%	101%	95.1%	78.7%	64%	102%	97.5%	99%	85.2%	70.5%	96.9%	97.9%	93.7%	96%	70%	1350 nM	3.2	5.9	4.1	2.8	2	–	–	–	–
c1ccc2nc(C3=NCCN3)cnc2c1 [BU-239]	97.1%	101%	102%	102%	100%	101%	106%	95.4%	112%	99.8%	99.2%	104%	112%	104%	101%	–	–	–	–	–	–	–	–	–	–	> 10000 nM	0	0	0	–	–	> 10000 nM	> 10000 nM	–	–
CCCCCCNC(=O)n1cc(F)c(=O)[nH]c1=O [Carmofur]	106%	92%	94.1%	91.7%	74.1%	89.8%	102%	100%	101%	93.8%	108%	104%	102%	85.5%	63.6%	103%	96.5%	102%	94.8%	55.9%	104%	99.4%	102%	102%	67.1%	> 10000 nM	1.5	0	3.7	3.1	1.4	–	–	–	–
COc1cc(-c2ncn(/C=C\C(=O)OC(C)C)n2)cc(C(F)(F)F)c1 [KPT-185]	94.7%	96.5%	92.2%	57%	38.9%	99.4%	91.1%	81.8%	55.6%	51.9%	105%	100%	84.3%	29.1%	23.9%	98.1%	93.7%	89.5%	11.3%	4.1%	97.1%	102%	96.4%	41.8%	20%	–	9	10	15.1	17.6	11.6	480 nM	218 nM	284 nM	573 nM
Cc1cc(C)cc(C(=O)NOCCCCCC(=O)NO)c1 [LMK-235]	107%	86.9%	96.4%	60.3%	0.9%	–	–	–	–	–	95.1%	93.3%	79.4%	34.4%	0.3%	95.9%	91.3%	90.4%	49.3%	1.9%	95.3%	102%	96.1%	39.8%	-0.1%	–	10.4	–	15.1	11.6	12.7	1220 nM	441 nM	884 nM	777 nM
C/C(=N\Nc1nnc2c(n1)[nH]c1c(C)cccc12)c1ccccn1 [VLX600]	95.5 ± 6%	101 ± 1.6%	98.1 ± 4.1%	20.2 ± 5.8%	21 ± 2.1%	–	–	–	–	–	102 ± 2.3%	107 ± 10%	103 ± 11%	17.9 ± 6%	23.6 ± 1.6%	100 ± 3.2%	99.6 ± 9.3%	98.9%	34.3 ± 6.7%	27 ± 0.99%	101 ± 6%	100.5 ± 0.49%	104 ± 2.5%	21.6 ± 15%	4.95 ± 1.2%	–	14.8 ± 0.35	–	14.85 ± 0.071	12.2 ± 1.3	14.6 ± 2.2	320 nM	319 nM	418 nM	525 nM
CC#CC(=O)N1CCC[C@H]1c1nc(-c2ccc(C(=O)Nc3ccccn3)cc2)c2c(N)nccn12 [acalabrutinib]	92.1%	101%	99.4%	90.5%	97.8%	99.5%	89.1%	84.2%	67.8%	65.3%	95.9%	96.7%	95%	103%	102%	99.3%	95.6%	105%	95.3%	102%	91.4%	99.7%	93.1%	96.7%	98.2%	–	0	7.3	0	0	0	> 10000 nM	> 10000 nM	> 10000 nM	> 10000 nM
CCCCCCNC(=O)n1cc(F)c(=O)[nH]c1=O [carmofur]	107%	98.5%	95%	97.8%	61.7%	95.4%	93.1%	90%	94.8%	83.7%	100%	98.3%	101%	76.4%	42.5%	98.7%	103%	98.5%	99.5%	54%	106%	102%	102%	97.4%	58.8%	> 10000 nM	2.2	0.4	6.3	2.4	2.4	–	1160 nM	–	–
